The target in the test is T1, full-length ATR (Homo sapiens, UniProt Q13535).
T1 construct: in the presence of 5 nM full-length ATR
T1 sequence (Q13535 whole entry): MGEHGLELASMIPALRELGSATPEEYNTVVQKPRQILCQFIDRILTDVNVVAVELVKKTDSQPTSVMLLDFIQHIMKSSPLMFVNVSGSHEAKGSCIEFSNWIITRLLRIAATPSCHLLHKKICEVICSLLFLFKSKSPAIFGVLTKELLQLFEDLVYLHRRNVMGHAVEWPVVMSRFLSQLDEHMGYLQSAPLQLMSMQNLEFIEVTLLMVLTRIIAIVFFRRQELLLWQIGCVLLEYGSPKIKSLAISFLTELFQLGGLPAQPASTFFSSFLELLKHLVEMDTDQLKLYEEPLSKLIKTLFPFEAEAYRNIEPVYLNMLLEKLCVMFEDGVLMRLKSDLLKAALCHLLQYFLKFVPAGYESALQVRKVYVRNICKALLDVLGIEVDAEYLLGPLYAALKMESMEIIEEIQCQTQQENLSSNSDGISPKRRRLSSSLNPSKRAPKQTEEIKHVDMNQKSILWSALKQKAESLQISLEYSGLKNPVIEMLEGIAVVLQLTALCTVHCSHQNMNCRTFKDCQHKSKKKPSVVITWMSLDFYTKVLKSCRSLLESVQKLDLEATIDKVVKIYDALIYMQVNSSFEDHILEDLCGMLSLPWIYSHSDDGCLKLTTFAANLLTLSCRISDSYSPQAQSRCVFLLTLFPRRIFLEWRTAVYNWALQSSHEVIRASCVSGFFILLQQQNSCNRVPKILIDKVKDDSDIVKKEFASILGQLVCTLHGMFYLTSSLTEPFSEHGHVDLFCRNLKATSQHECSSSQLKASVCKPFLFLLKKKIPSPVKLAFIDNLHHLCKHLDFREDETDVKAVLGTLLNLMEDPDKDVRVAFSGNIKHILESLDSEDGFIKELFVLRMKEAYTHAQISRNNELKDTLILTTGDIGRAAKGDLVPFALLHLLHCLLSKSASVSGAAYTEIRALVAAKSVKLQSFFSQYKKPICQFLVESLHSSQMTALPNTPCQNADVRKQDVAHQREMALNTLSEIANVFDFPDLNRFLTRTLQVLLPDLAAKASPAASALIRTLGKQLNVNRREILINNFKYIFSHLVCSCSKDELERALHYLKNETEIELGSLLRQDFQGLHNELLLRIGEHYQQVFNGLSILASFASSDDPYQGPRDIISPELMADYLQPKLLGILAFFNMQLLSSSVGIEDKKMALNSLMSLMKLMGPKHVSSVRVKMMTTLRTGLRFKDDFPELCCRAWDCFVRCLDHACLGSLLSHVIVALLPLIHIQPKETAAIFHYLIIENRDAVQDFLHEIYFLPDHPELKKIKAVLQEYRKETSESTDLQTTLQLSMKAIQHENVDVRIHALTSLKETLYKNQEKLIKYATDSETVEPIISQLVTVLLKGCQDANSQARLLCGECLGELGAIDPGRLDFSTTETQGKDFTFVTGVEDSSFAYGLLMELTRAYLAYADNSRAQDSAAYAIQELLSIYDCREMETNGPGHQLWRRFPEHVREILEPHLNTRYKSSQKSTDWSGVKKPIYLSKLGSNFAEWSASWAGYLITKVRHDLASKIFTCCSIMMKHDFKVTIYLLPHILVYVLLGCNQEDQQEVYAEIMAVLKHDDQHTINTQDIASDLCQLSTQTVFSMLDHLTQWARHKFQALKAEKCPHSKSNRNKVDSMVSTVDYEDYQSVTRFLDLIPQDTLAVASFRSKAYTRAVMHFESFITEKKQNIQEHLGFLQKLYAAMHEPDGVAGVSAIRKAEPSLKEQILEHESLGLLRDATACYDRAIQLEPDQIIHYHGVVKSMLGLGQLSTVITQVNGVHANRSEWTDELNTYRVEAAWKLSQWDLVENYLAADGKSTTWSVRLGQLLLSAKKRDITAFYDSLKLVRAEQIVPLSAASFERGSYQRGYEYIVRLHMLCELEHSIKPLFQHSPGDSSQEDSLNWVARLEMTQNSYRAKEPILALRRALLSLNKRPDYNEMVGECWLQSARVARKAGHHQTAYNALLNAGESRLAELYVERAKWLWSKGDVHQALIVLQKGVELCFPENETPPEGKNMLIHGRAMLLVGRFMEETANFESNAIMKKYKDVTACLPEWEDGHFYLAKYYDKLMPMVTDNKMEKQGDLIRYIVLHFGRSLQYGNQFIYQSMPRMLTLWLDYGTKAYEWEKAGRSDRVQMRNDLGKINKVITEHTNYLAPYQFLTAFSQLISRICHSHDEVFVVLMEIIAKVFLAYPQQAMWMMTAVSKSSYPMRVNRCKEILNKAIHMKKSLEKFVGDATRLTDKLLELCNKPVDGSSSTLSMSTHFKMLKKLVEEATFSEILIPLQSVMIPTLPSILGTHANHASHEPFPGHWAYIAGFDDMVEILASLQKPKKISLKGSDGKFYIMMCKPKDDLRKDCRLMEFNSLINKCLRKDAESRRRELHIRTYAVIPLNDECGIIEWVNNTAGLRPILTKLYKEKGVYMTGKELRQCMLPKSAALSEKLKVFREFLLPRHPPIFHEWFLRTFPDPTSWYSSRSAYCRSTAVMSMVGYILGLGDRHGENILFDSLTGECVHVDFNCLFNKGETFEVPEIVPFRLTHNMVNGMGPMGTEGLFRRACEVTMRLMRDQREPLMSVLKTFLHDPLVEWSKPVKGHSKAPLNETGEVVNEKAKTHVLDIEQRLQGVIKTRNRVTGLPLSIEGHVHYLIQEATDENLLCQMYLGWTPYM
Nature of the test: ATR Inhibition Assay (radioactive-phosphate incorporation). It is filed as biochemical. The conditions noted are these: Ki(app); 5 nM full-length ATR, 10 μM ATP, 800 μM target peptide, 25° C. The essentials: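 Buffer was 50 mM Tris/HCl pH 7.5, 10 mM MgCl2, 1 mM DTT, with 5 nM enzyme, 10 μM [γ-33P]ATP and 800 μM target peptide at 25 °C. Compound was pre-incubated 10 min before ATP start, and the reaction was stopped after 24 h. Phosphocellulose filter capture; Ki(app) came from non-linear regression of background-corrected initial rates.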
For `Nc1ncc(C2=CCN(S(=O)(=O)c3cccs3)CC2)nc1-c1nc2ccccc2[nH]1` [Compound I-79, 3-(1H-benzo[d]imidazol-2-yl)-5-(1-(thiophen-2-ylsulfonyl)-1,2,3,6-tetrahydropyridin-4-yl)pyrazin-2-amine], the Ki was under 100 nM.
For the compound `CS(=O)(=O)N1CCN(c2cnc(N)c(C(=O)Nc3ccccn3)n2)CC1` [Compound I-219, 3-amino-6-(4-(methylsulfonyl)piperazin-1-yl)-N-(pyridin-2-yl)pyrazine-2-carboxamide], the Ki was 100 to 1000 nM.
Then `Nc1ncc(C2=CCN(C(=O)c3ccccc3)CC2)nc1-c1nc2ccccc2[nH]1` [Compound I-82, (4-(5-amino-6-(1H-benzo[d]imidazol-2-yl)pyrazin-2-yl)-5,6-dihydropyridin-1(2H)-yl)(phenyl)methanone], with under 100 nM; and `Nc1ncc(N2CC[C@H](NC(=O)COc3ccccc3)C2)nc1-c1nc2ccccc2[nH]1` [Compound I-205, (S)-N-(1-(5-amino-6-(1H-benzo[d]imidazol-2-yl)pyrazin-2-yl)pyrrolidin-3-yl)-2-phenoxyethanamide], with 100 to 1000 nM; and `Cn1cnc(S(=O)(=O)N2CC=C(c3cnc(N)c(-c4nc5ccccc5[nH]4)n3)CC2)c1` [Compound I-94, 3-(1H-benzo[d]imidazol-2-yl)-5-(1-(1-methyl-1H-imidazol-4-ylsulfonyl)-1,2,3,6-tetrahydropyridin-4-yl)pyrazin-2-amine], with under 100 nM.
For the compound `Nc1ncc(N2CCN(S(=O)(=O)c3ccsc3)CC2)nc1C(=O)Nc1ccccn1` [Compound I-117, 3-amino-N-(pyridin-2-yl)-6-(4-(thiophen-3-ylsulfonyl)piperazin-1-yl)pyrazine-2-carboxamide], the Ki fell in the range of 100 to 1000 nM.
Then `CNCc1ccc(-c2nnc(-c3nc(C4CC4C(=O)NCC(O)CO)cnc3N)o2)cc1` (centres unmarked) [Compound I-376, 2-[5-Amino-6-[5-[4-(methylaminomethyl)phenyl]-1,3,4-oxadiazol-2-yl]pyrazin-2-yl]-N-(2,3-dihydroxypropyl)cyclopropanecarboxamide], with 100 to 1000 nM.
In the case of `Nc1ncc(N2CCN(C(=O)C3CCCC3)CC2)nc1-c1nnc(-c2ccccc2)o1` [Compound I-194, (4-(5-amino-6-(5-phenyl-1,3,4-oxadiazol-2-yl)pyrazin-2-yl)piperazin-1-yl)(cyclopentyl)methanone], the Ki was in the range of 100 to 1000 nM.
Consider `Nc1ncc(C2=CCN(C(=O)C3CCCC3)CC2)nc1-c1nc2ccccc2[nH]1` [Compound I-206, (4-(5-amino-6-(1H-benzo[d]imidazol-2-yl)pyrazin-2-yl)-5,6-dihydropyridin-1(2H)-yl)(cyclopentyl)methanone], for which the Ki was 100 to 1000 nM.
For `CNCc1ccc(-c2nnc(-c3nc(N4C[C@@H]5C(C(=O)O)[C@@H]5C4)cnc3N)o2)cc1` (stereo partly drawn) [Compound I-349, (1R,5S)-3-[5-Amino-6-[5-[4-(methylaminomethyl)phenyl]-1,3,4-oxadiazol-2-yl]pyrazin-2-yl]-3-azabicyclo[3.1.0]hexane-6-carboxylic acid], the Ki lay within 100 to 1000 nM.
Turning to `Nc1ncc(N2CCN(C(=O)c3ccccc3)CC2)nc1-c1nc2ccccc2[nH]1` [Compound I-208, (4-(5-amino-6-(1H-benzo[d]imidazol-2-yl)pyrazin-2-yl)piperazin-1-yl)(phenyl)methanone], the Ki fell in the range of 100 to 1000 nM.
The value for `CCS(=O)(=O)N1CC=C(c2cnc(N)c(-c3nc4cc(C(C)(C)C)ccc4[nH]3)n2)CC1` [Compound I-156, 3-(5-tert-butyl-1H-benzo[d]imidazol-2-yl)-5-(1-(ethylsulfonyl)-1,2,3,6-tetrahydropyridin-4-yl)pyrazin-2-amine] was 1000 to 10000 nM; that for `COCCOCC(=O)N1CCN(c2cnc(N)c(-c3nnc(-c4ccccc4)o3)n2)CC1` [Compound I-178, 1-(4-(5-amino-6-(5-phenyl-1,3,4-oxadiazol-2-yl)pyrazin-2-yl)piperazin-1-yl)-2-(2-methoxyethoxy)ethanone] was 100 to 1000 nM; that for `CC(=O)NC1CN(c2cnc(N)c(-c3nnc(-c4ccccc4)o3)n2)C1` [Compound I-282, N-(1-(5-amino-6-(5-phenyl-1,3,4-oxadiazol-2-yl)pyrazin-2-yl)azetidin-3-yl)ethanamide] was 1000 to 10000 nM.
The value for `Nc1ncc(N2CCN(C(=O)C3CCC3)CC2)nc1-c1nnc(-c2ccccc2)o1` [Compound I-189, (4-(5-amino-6-(5-phenyl-1,3,4-oxadiazol-2-yl)pyrazin-2-yl)piperazin-1-yl)(cyclobutyl)methanone] was 100 to 1000 nM.
Regarding `CS(=O)(=O)N1CCN(c2cnc(N)c(-c3nc4ccccc4[nH]3)n2)CC1` [Compound I-86, 3-(1H-benzo[d]imidazol-2-yl)-5-(4-(methylsulfonyl)piperazin-1-yl)pyrazin-2-amine], the Ki lay in the range of 100 to 1000 nM.
Turning to `CCS(=O)(=O)N1CCN(c2cnc(N)c(-c3cn4ccsc4n3)n2)CC1` [Compound I-62, 5-(4-(ethylsulfonyl)piperazin-1-yl)-3-(imidazo[2,1-b]thiazol-6-yl)pyrazin-2-amine], the Ki was 1000 to 10000 nM.
The value for `Nc1ncc(C2=CCN(S(=O)(=O)c3ccccc3)CC2)nc1-c1nnc(-c2ccccc2)o1` [Compound I-102, 3-(5-phenyl-1,3,4-oxadiazol-2-yl)-5-(1-(phenylsulfonyl)-1,2,3,6-tetrahydropyridin-4-yl)pyrazin-2-amine] was under 100 nM; that for `CCS(=O)(=O)N1C2CCC1CN(c1cnc(N)c(-c3nnc(-c4ccc(CNC)cc4)o3)n1)C2` [Compound I-341, 5-(8-Ethylsulfonyl-3,8-diazabicyclo[3.2.1]octan-3-yl)-3-[5-[4-(methylaminomethyl)phenyl]-1,3,4-oxadiazol-2-yl]pyrazin-2-amine] was 100 to 1000 nM.
Then `Nc1ncc(C2=CCN(S(=O)(=O)Cc3ccccc3)CC2)nc1-c1nnc(-c2ccccc2)o1` [Compound I-100, 5-(1-(benzylsulfonyl)-1,2,3,6-tetrahydropyridin-4-yl)-3-(5-phenyl-1,3,4-oxadiazol-2-yl)pyrazin-2-amine], with under 100 nM; and `CCS(=O)(=O)N1CCN(c2cnc(N)c(C(=O)Nc3ccccn3)n2)CC1` [Compound I-55, 3-amino-6-(4-(ethylsulfonyl)piperazin-1-yl)-N-(pyridin-2-yl)pyrazine-2-carboxamide], with 100 to 1000 nM; and `CCS(=O)(=O)N1CCN(c2cnc(N)c(-c3cc4ccccc4s3)n2)CC1` [Compound I-59, 3-(benzo[b]thiophen-2-yl)-5-(4-(ethylsulfonyl)piperazin-1-yl)pyrazin-2-amine], with 100 to 1000 nM.
For `COC1CCN(c2cnc(N)c(-c3nc4ccc(C)cc4[nH]3)n2)CC1` [Compound I-12, 5-(4-methoxypiperidin-1-yl)-3-(6-methyl-1H-benzo[d]imidazol-2-yl)pyrazin-2-amine], the Ki was in the range of 1000 to 10000 nM.
On to `CCS(=O)(=O)N1CCN(c2cnc(N)c(-c3nnc(-c4ccc(CNC)cc4)o3)n2)CC1` [Compound I-325, 5-(4-Ethylsulfonylpiperazin-1-yl)-3-[5-[4-(methylaminomethyl)phenyl]-1,3,4-oxadiazol-2-yl]pyrazin-2-amine], for which the Ki was under 100 nM.
Then `Nc1ncc(N2CCN(S(=O)(=O)c3ccsc3)CC2)nc1-c1nnc(-c2ccccc2)o1` [Compound I-98, 3-(5-phenyl-1,3,4-oxadiazol-2-yl)-5-(4-(thiophen-3-ylsulfonyl)piperazin-1-yl)pyrazin-2-amine], with 100 to 1000 nM; and `COCC(=O)N1CCN(c2cnc(N)c(-c3nnc(-c4ccccc4)o3)n2)CC1` [Compound I-179, 1-(4-(5-amino-6-(5-phenyl-1,3,4-oxadiazol-2-yl)pyrazin-2-yl)piperazin-1-yl)-2-methoxyethanone], with 100 to 1000 nM; and `Nc1ncc(N2CCN(C(=O)Cc3ccccc3)CC2)nc1C(=O)Nc1ccccn1` [Compound I-141, 3-amino-6-(4-(2-phenylethanoyl)piperazin-1-yl)-N-(pyridin-2-yl)pyrazine-2-carboxamide], with 1000 to 10000 nM.
In the case of `CCS(=O)(=O)N[C@@H]1C2CN(c3cnc(N)c(-c4nnc(-c5ccc(CNC)cc5)o4)n3)C[C@@H]21` (some centres unmarked) [Compound I-369], the Ki is under 100 nM.
Then `Nc1ncc(N2CCN(C(=O)N3CCCCC3)CC2)nc1C(=O)Nc1ccccn1` [Compound I-247, 3-amino-6-(4-(piperidine-1-carbonyl)piperazin-1-yl)-N-(pyridin-2-yl)pyrazine-2-carboxamide], with 1000 to 10000 nM; and `CCNC(=O)[C@H]1CCCN1c1cnc(N)c(-c2nnc(-c3ccc(CNC)cc3)o2)n1` [Compound I-357, (2R)-1-[5-Amino-6-[5-[4-(methylaminomethyl)phenyl]-1,3,4-oxadiazol-2-yl]pyrazin-2-yl]-N-ethyl-pyrrolidine-2-carboxamide], with 100 to 1000 nM; and `CNCc1ccc(-c2nnc(-c3nc(N4CCC[C@H]4C)cnc3N)o2)cc1` [Compound I-362, 3-[5-[4-(Methylaminomethyl)phenyl]-1,3,4-oxadiazol-2-yl]-5-[(2R)-2-methylpyrrolidin-1-yl]pyrazin-2-amine], with 100 to 1000 nM.
Then `CNCc1ccc(-c2nnc(-c3nc(N4Cc5ccccc5C4)cnc3N)o2)cc1` [Compound I-321, 5-Isoindolin-2-yl-3-[5-[4-(methylaminomethyl)phenyl]-1,3,4-oxadiazol-2-yl]pyrazin-2-amine], with 1000 to 10000 nM; and `CCOC(=O)N1CC=C(c2cnc(N)c(-c3nnc(-c4ccccc4)o3)n2)CC1` [Compound I-238, ethyl 4-(5-amino-6-(5-phenyl-1,3,4-oxadiazol-2-yl)pyrazin-2-yl)-5,6-dihydropyridine-1(2H)-carboxylate], with under 100 nM.
On to `CCS(=O)(=O)N1CCN(c2cnc(N)c(-c3nnc(Nc4ccccc4)o3)n2)CC1` [Compound I-69, 5-(3-amino-6-(4-(ethylsulfonyl)piperazin-1-yl)pyrazin-2-yl)-N-phenyl-1,3,4-oxadiazol-2-amine], for which the Ki fell in the range of 100 to 1000 nM.
Take `CNCc1ccc(-c2nnc(-c3nc(N4C[C@H]5CCC(OS(C)(=O)=O)[C@H]5C4)cnc3N)o2)cc1` (some centres unmarked) [Compound I-320]: the Ki is under 100 nM.

Values taken from US8410112B2, “Compounds useful as inhibitors of ATR kinase” (Vertex Pharmaceuticals Incorporated, priority 2008, dated 2013).
